Experimental data: patent US12329802B2, “Focal treatment of prostate cancer” (Nymox Corporation, priority 2019, dated 2025)
Where no end group is shown, it is not given here.

What was measured:
[1] = tested on: low grade prostate cancer (Gleason grade 6); assay: clinical study: hemi-prostate multifocal cancer with Gleason upgrade (Example 1); assay type: in vivo, human; details: for % Imp. (hemi-prostate multifocal cancer with Gleason upgrade): vs active surveillance control
Description: (§1) In a series of clinical studies a total of 146 men with low grade prostate cancer (Gleason grade 6) were treated in the following manner. Patients were randomized and treated with a transrectal intraprostatic single injection of a composition comprising 2.5 mg FT (n=49), or a composition comprising 15 mg FT (n=48), or were subject to control active surveillance (n=49). After the first follow-up biopsy at 45 days post-randomization, 18 patients in the control active surveillance group crossed over to a single administration of a composition comprising 2.5 mg FT. Patients were followed for 5 years including biopsies at baseline, 45 days, 18, 36, and 60 months, and urological evaluations with PSA every 6 months. Patients with Gleason grade increase or who elected surgical or radiotherapeutic intervention exited the study and were still included in the data analysis. Percentage of normal biopsies in the baseline focus quadrant and median tumor grade and volume were assessed; progression was measured by clinical and pathological outcomes including Gleason grade in the entire prostate sampled as well as for the treated prostate lobe. Interventions associated with Gleason grade increase as well as total incidence for any intervention was assessed.

[2] = tested on: prostate glandular epithelial cells; assay: tissue culture genetic array, in vitro; assay type: cell-based
Source text: Use of FT is a preferred embodiment. FT is a new molecular entity which in vitro stimulates caspase pathways (activation of caspases 7, 8, and 10, caspase recruitment domains 6, 11, and 14, and DIABLO), tumor necrosis factor pathways (activation of TNF1, TNFSF6, TNFSF8, TNFSF9, CD70 ligands, and TNFRSF19L, TNFRSF25, TRAF2, TRAF3, TRAF4, TRAF6 receptors), and BCL pathways (activation of BIK, HRK, BCL2L10 and BCL3) in prostate glandular epithelial cells, based on tissue culture genetic array data. […] The apoptotic process leads to typical ultrastructural progressive changes of membranous disruption and swelling, progressively deepening nuclear invaginations with eventual membranous bleb formations and cell death and fragmentation into apoptotic bodies. Histologically, typical apoptotic changes with positive immunohistochemical staining of markers for apoptosis are found throughout the injected areas for up to several weeks after treatment.

[3] = tested on: low grade prostate cancer (Gleason grade 6); assay: clinical study: cancer treatment with new multifocal and an increase in Gleason grade primary pattern in the hemi-prostate (Example 4); assay type: in vivo, human; details: for % Imp. (cancer treatment with new multifocal and an increase in Gleason grade primary pattern in the hemi-prostate): vs active surveillance control
Description: as §1
This example evaluated the percentage of patients having conventional cancer treatment (surgery, radiotherapy, or chemotherapy), and having multifocal prostate cancer in the lobe (or hemi-prostate) in which the foci were initially treated with Gleason primary pattern (cancer treatment with new multifocal and an increase in Gleason grade primary pattern in the hemi-prostate).

[4] = tested on: low grade prostate cancer (Gleason grade 6); assay: clinical study: hemi-prostate multifocal cancer with increase in Gleason primary pattern (Example 2); assay type: in vivo, human; details: for % Imp. (hemi-prostate multifocal cancer with increase in Gleason primary pattern): vs active surveillance control
Description: as §1

[5] = tested on: low grade prostate cancer (Gleason grade 6); assay: clinical study: cancer treatment with new multifocal with increased Gleason grade in the hemi-prostate (Example 3); assay type: in vivo, human; details: for % Imp. (cancer treatment with new multifocal with increased Gleason grade in the hemi-prostate): vs active surveillance control
Description: as §1
This example evaluated the percentage of patients who had conventional cancer treatment (e.g., surgery, radiotherapy, and/or chemotherapy), and who and who had multifocal prostate cancer in the lobe (or hemi-prostate) in which the foci were initially treated with Gleason upgrade (cancer treatment with new multifocal with increased Gleason grade in the hemi-prostate).

[6] = FT 2.5 mg, single transrectal intraprostatic injection, <= 18 mos from treatment
[7] = FT 2.5 mg, single transrectal intraprostatic injection, <= 36 mos from treatment
[8] = FT 2.5 mg, single transrectal intraprostatic injection, <= 48 mos from treatment
[9] = FT 15 mg, single transrectal intraprostatic injection, <= 18 mos from treatment
[10] = FT 15 mg, single transrectal intraprostatic injection, <= 36 mos from treatment
[11] = FT 15 mg, single transrectal intraprostatic injection, <= 48 mos from treatment
[12] = Pooled FT (2.5 mg and 15 mg), <= 18 mos from treatment
[13] = Pooled FT (2.5 mg and 15 mg), <= 36 mos from treatment
[14] = Pooled FT (2.5 mg and 15 mg), <= 48 mos from treatment

Ile-Asp-Gln-Gln-Val-Leu-Ser-Arg-Ile-Lys-Leu-Glu-Ile-Lys-Arg-Cys-Leu (IDQQVLSRIKLEIKRCL; also: trifluoroacetate salt) [FT]
percentage of patients with hemi-prostate multifocal cancer with Gleason upgrade [1, 6]: 8.6%
percentage of patients with hemi-prostate multifocal cancer with Gleason upgrade [1, 7]: 16.7%
percentage of patients with hemi-prostate multifocal cancer with Gleason upgrade [1, 8]: 42.9%
% Imp. (hemi-prostate multifocal cancer with Gleason upgrade) ([1]; FT 2.5 mg, <= 18 mos): 54.26%
% Imp. (hemi-prostate multifocal cancer with Gleason upgrade) ([1]; FT 2.5 mg, <= 36 mos): 53.2%
% Imp. (hemi-prostate multifocal cancer with Gleason upgrade) ([1]; FT 2.5 mg, <= 48 mos): 5.7%
percentage of patients with hemi-prostate multifocal cancer with Gleason upgrade [1, 9]: 5.7%
percentage of patients with hemi-prostate multifocal cancer with Gleason upgrade [1, 10]: 9.1%
percentage of patients with hemi-prostate multifocal cancer with Gleason upgrade [1, 11]: 13.3%
% Imp. (hemi-prostate multifocal cancer with Gleason upgrade) ([1]; FT 15 mg, <= 18 mos): 69.7%
% Imp. (hemi-prostate multifocal cancer with Gleason upgrade) ([1]; FT 15 mg, <= 36 mos): 74.5%
% Imp. (hemi-prostate multifocal cancer with Gleason upgrade) ([1]; FT 15 mg, <= 48 mos): 70.8%
percentage of patients with hemi-prostate multifocal cancer with Gleason upgrade [1, 12]: 7.1%
percentage of patients with hemi-prostate multifocal cancer with Gleason upgrade [1, 13]: 13.0%
percentage of patients with hemi-prostate multifocal cancer with Gleason upgrade [1, 14]: 27.6%
% Imp. (hemi-prostate multifocal cancer with Gleason upgrade) ([1]; Pooled FT, <= 18 mos): 62.2%
% Imp. (hemi-prostate multifocal cancer with Gleason upgrade) ([1]; Pooled FT, <= 36 mos): 63.6%
% Imp. (hemi-prostate multifocal cancer with Gleason upgrade) ([1]; Pooled FT, <= 48 mos): 39.3%
effect on BCL pathways (activation of BIK, HRK, BCL2L10 and BCL3) [2]: stimulates
effect on caspase pathways (activation of caspases 7, 8, and 10, caspase recruitment domains 6, 11, and 14, and DIABLO) [2]: stimulates
effect on tumor necrosis factor pathways (activation of TNF1, TNFSF6, TNFSF8, TNFSF9, CD70 ligands, and TNFRSF19L, TNFRSF25, TRAF2, TRAF3, TRAF4, TRAF6 receptors) [2]: stimulates
percentage of patients with cancer treatment with new multifocal and an increase in Gleason grade primary pattern in the hemi-prostate [3, 6]: 0%
percentage of patients with cancer treatment with new multifocal and an increase in Gleason grade primary pattern in the hemi-prostate [3, 7]: 0%
percentage of patients with cancer treatment with new multifocal and an increase in Gleason grade primary pattern in the hemi-prostate [3, 8]: 0%
% Imp. (cancer treatment with new multifocal and an increase in Gleason grade primary pattern in the hemi-prostate) ([3]; FT 2.5 mg, <= 18 mos): 100%
% Imp. (cancer treatment with new multifocal and an increase in Gleason grade primary pattern in the hemi-prostate) ([3]; FT 2.5 mg, <= 36 mos): 100%
% Imp. (cancer treatment with new multifocal and an increase in Gleason grade primary pattern in the hemi-prostate) ([3]; FT 2.5 mg, <= 48 mos): 100%
percentage of patients with cancer treatment with new multifocal and an increase in Gleason grade primary pattern in the hemi-prostate [3, 9]: 2.6%
percentage of patients with cancer treatment with new multifocal and an increase in Gleason grade primary pattern in the hemi-prostate [3, 10]: 3.6%
percentage of patients with cancer treatment with new multifocal and an increase in Gleason grade primary pattern in the hemi-prostate [3, 11]: 4.2%
% Imp. (cancer treatment with new multifocal and an increase in Gleason grade primary pattern in the hemi-prostate) ([3]; FT 15 mg, <= 18 mos): 75.2%
% Imp. (cancer treatment with new multifocal and an increase in Gleason grade primary pattern in the hemi-prostate) ([3]; FT 15 mg, <= 36 mos): 79.5%
% Imp. (cancer treatment with new multifocal and an increase in Gleason grade primary pattern in the hemi-prostate) ([3]; FT 15 mg, <= 48 mos): 77.7%
percentage of patients with cancer treatment with new multifocal and an increase in Gleason grade primary pattern in the hemi-prostate [3, 12]: 1.3%
percentage of patients with cancer treatment with new multifocal and an increase in Gleason grade primary pattern in the hemi-prostate [3, 13]: 1.7%
percentage of patients with cancer treatment with new multifocal and an increase in Gleason grade primary pattern in the hemi-prostate [3, 14]: 2.1%
% Imp. (cancer treatment with new multifocal and an increase in Gleason grade primary pattern in the hemi-prostate) ([3]; Pooled FT, <= 18 mos): 87.6%
% Imp. (cancer treatment with new multifocal and an increase in Gleason grade primary pattern in the hemi-prostate) ([3]; Pooled FT, <= 36 mos): 90.3%
% Imp. (cancer treatment with new multifocal and an increase in Gleason grade primary pattern in the hemi-prostate) ([3]; Pooled FT, <= 48 mos): 88.8%
percentage of patients with hemi-prostate multifocal cancer with increase in Gleason primary pattern [4, 6]: 0%
percentage of patients with hemi-prostate multifocal cancer with increase in Gleason primary pattern [4, 7]: 0%
percentage of patients with hemi-prostate multifocal cancer with increase in Gleason primary pattern [4, 8]: 0%
% Imp. (hemi-prostate multifocal cancer with increase in Gleason primary pattern) ([4]; FT 2.5 mg, <= 18 mos): 100%
% Imp. (hemi-prostate multifocal cancer with increase in Gleason primary pattern) ([4]; FT 2.5 mg, <= 36 mos): 100%
% Imp. (hemi-prostate multifocal cancer with increase in Gleason primary pattern) ([4]; FT 2.5 mg, <= 48 mos): 100%
percentage of patients with hemi-prostate multifocal cancer with increase in Gleason primary pattern [4, 9]: 2.9%
percentage of patients with hemi-prostate multifocal cancer with increase in Gleason primary pattern [4, 10]: 4.5%
percentage of patients with hemi-prostate multifocal cancer with increase in Gleason primary pattern [4, 11]: 6.7%
% Imp. (hemi-prostate multifocal cancer with increase in Gleason primary pattern) ([4]; FT 15 mg, <= 18 mos): 76.8%
% Imp. (hemi-prostate multifocal cancer with increase in Gleason primary pattern) ([4]; FT 15 mg, <= 36 mos): 79%
% Imp. (hemi-prostate multifocal cancer with increase in Gleason primary pattern) ([4]; FT 15 mg, <= 48 mos): 75.5%
percentage of patients with hemi-prostate multifocal cancer with increase in Gleason primary pattern [4, 12]: 1.4%
percentage of patients with hemi-prostate multifocal cancer with increase in Gleason primary pattern [4, 13]: 2.2%
percentage of patients with hemi-prostate multifocal cancer with increase in Gleason primary pattern [4, 14]: 3.4%
% Imp. (hemi-prostate multifocal cancer with increase in Gleason primary pattern) ([4]; Pooled FT, <= 18 mos): 88.8%
% Imp. (hemi-prostate multifocal cancer with increase in Gleason primary pattern) ([4]; Pooled FT, <= 36 mos): 89.7%
% Imp. (hemi-prostate multifocal cancer with increase in Gleason primary pattern) ([4]; Pooled FT, <= 48 mos): 87.5%
percentage of patients with cancer treatment with new multifocal with increased Gleason grade in the hemi-prostate [5, 6]: 4.9%
percentage of patients with cancer treatment with new multifocal with increased Gleason grade in the hemi-prostate [5, 7]: 10%
percentage of patients with cancer treatment with new multifocal with increased Gleason grade in the hemi-prostate [5, 8]: 17.4%
% Imp. (cancer treatment with new multifocal with increased Gleason grade in the hemi-prostate) ([5]; FT 2.5 mg, <= 18 mos): 69%
% Imp. (cancer treatment with new multifocal with increased Gleason grade in the hemi-prostate) ([5]; FT 2.5 mg, <= 36 mos): 57.4%
% Imp. (cancer treatment with new multifocal with increased Gleason grade in the hemi-prostate) ([5]; FT 2.5 mg, <= 48 mos): 44.4%
percentage of patients with cancer treatment with new multifocal with increased Gleason grade in the hemi-prostate [5, 9]: 5.1%
percentage of patients with cancer treatment with new multifocal with increased Gleason grade in the hemi-prostate [5, 10]: 7.1%
percentage of patients with cancer treatment with new multifocal with increased Gleason grade in the hemi-prostate [5, 11]: 8.3%
% Imp. (cancer treatment with new multifocal with increased Gleason grade in the hemi-prostate) ([5]; FT 15 mg, <= 18 mos): 67.7%
% Imp. (cancer treatment with new multifocal with increased Gleason grade in the hemi-prostate) ([5]; FT 15 mg, <= 36 mos): 69.8%
% Imp. (cancer treatment with new multifocal with increased Gleason grade in the hemi-prostate) ([5]; FT 15 mg, <= 48 mos): 73.5%
percentage of patients with cancer treatment with new multifocal with increased Gleason grade in the hemi-prostate [5, 12]: 5%
percentage of patients with cancer treatment with new multifocal with increased Gleason grade in the hemi-prostate [5, 13]: 8.6%
percentage of patients with cancer treatment with new multifocal with increased Gleason grade in the hemi-prostate [5, 14]: 12.8%
% Imp. (cancer treatment with new multifocal with increased Gleason grade in the hemi-prostate) ([5]; Pooled FT, <= 18 mos): 68.4%
% Imp. (cancer treatment with new multifocal with increased Gleason grade in the hemi-prostate) ([5]; Pooled FT, <= 36 mos): 63.4%
% Imp. (cancer treatment with new multifocal with increased Gleason grade in the hemi-prostate) ([5]; Pooled FT, <= 48 mos): 59.1%
